In patent US7524851B2 (Robert Bosch Gesellschaft fur Medizinische Forschung (RBMF), priority 2003, dated 2009):

Tests used:
CD4+ T cells = assay: Apoptosis by Nicoletti staining and transmission electron microscopy; assay type: cell-based, human; conditions: 5 days
Method: For FACS analysis, apoptotic cells were detected by staining with annexin V and propidium iodide using the Annexin V FITC Apoptosis Detection Kit I (PharMingen) (Atreya et al., Nat. Med. 6:583-588 (2000)). In brief, T cells were washed twice in PBS, and the pellet was resuspended in annexin V binding buffer (PharMingen) at a concentration of 10^6 cells per milliliter. Annexin V FITC and propidium iodide were added (5 ill of each per 10^5 cells). Samples were gently mixed and incubated for 15 minutes at room temperature in the dark before FACS analysis. To verify the results obtained with the annexin V/propidium iodide staining, analysis of T cells displaying DNA fragmentation was also determined by the Nicoletti technique, as described in (Nicoletti et al., J. Immunol. Methods 139:271-279 (1991)). 10^6 T cells were fixed in 70% ethanol, washed once in HBSS, resuspended in 1 ml of HBSS and 1 ml of phosphate citric acid buffer (0.2 mol/l Na2PO4 and 0.004 mol/l citric acid [pH 7.8]), and incubated at room temperature for 5 minutes. After centrifugation, cells were resuspended in 1 ml of HBSS containing 20 μg/ml propidium iodide and 10 U DNase-free RNase A and incubated at room temperature for 30 minutes. Finally, cells were analyzed on a FACScan flow cytometer. Because of the fragmentation of DNA, apoptotic cells appear as hypodiploid in the DNA histogram.

[1] = tested on: primary CD4+ T lymphocytes; assay: Mitochondrial membrane potential (JC-1, FACS); conditions: 5 days
CD45RO memory T cells = assay: Annexin V/propidium iodide FACS apoptosis of stimulated CD45RO T cells; assay type: cell-based, human; conditions: rIL-2, anti-CD3 plus anti-CD28; 5 days; more pronounced than in CD45RA T cells
Excerpt: (§1) Isolation of primary CD4^+ T lymphocytes and lamina propria cells: Human peripheral blood mononuclear cells (PBMCs) from healthy volunteers (25-42 years of age) and patients with Crohn's disease (31-65 years of age) were isolated using Ficoll-Hypaque gradients. PBMCs were further purified using CD4 monoclonal antibodies attached to immunomagnetic beads according to the manufacturer's protocol, followed by treatment with Detachabead (Dynal; Oslo, Norway). In some cases, CD4^+ T cells were further separated by negative selection techniques using CD45RO or CD45RA monoclonal antibodies (PharMingen; Heidelberg, Germany) and immunomagnetic beads (Dynal). […]
(§2) For FACS analysis, apoptotic cells were detected by staining with annexin V and propidium iodide using the Annexin V FITC Apoptosis Detection Kit I (PharMingen) (Atreya et al., Nat. Med. 6:583-588 (2000)). […] To verify the results obtained with the annexin V/propidium iodide staining, analysis of T cells displaying DNA fragmentation was also determined by the Nicoletti technique, as described in (Nicoletti et al., J. Immunol. Methods 139:271-279 (1991)). […] Finally, cells were analyzed on a FACScan flow cytometer. […]

[2] = tested on: peripheral blood CD4+ T cells; assay: Apoptotic blood T cells from IBD patients receiving azathioprine/6-MP; assay type: in vivo, human; conditions: for number of apoptotic blood T cells: treated IBD patients vs untreated patients before therapy, cells stimulated with CD28 in culture, P<0.05
Excerpt: FIG. 3. […] (a) LPMCs were isolated and stimulated with anti-CD2/CD28 plus IL-2 in the presence or absence of 6-MP for 5 days followed by FACS analysis. […] Data represent mean values±SEM from eight patients with IBD per group. […] Data are representative of 5-13 patients per group. Magnification, ×20 (bar=100 μm) (ce) and ×40 (bar=50 μm) (f-h). (i) Quantification of the percentage of apoptotic, TUNEL-positive LPMCs in patients with IBD receiving 6-MP as compared with untreated control patients. […] Data are mean values±SEM of 5-13 patients per group.
Isolation of primary CD4^+ T lymphocytes and lamina propria cells: Human peripheral blood mononuclear cells (PBMCs) from healthy volunteers (25-42 years of age) and patients with Crohn's disease (31-65 years of age) were isolated using Ficoll-Hypaque gradients. PBMCs were further purified using CD4 monoclonal antibodies attached to immunomagnetic beads according to the manufacturer's protocol, followed by treatment with Detachabead (Dynal; Oslo, Norway). In some cases, CD4^+ T cells were further separated by negative selection techniques using CD45RO or CD45RA monoclonal antibodies (PharMingen; Heidelberg, Germany) and immunomagnetic beads (Dynal). […] Lamina propria mononuclear cells (LPMCs) from patients with IBD were isolated from gut specimens using a short-term (5-minute) digestion protocol with collagenase V, hyaluronidase (Sigma-Aldrich; St. Louis, Mo., USA), and DNase (Roche; Mannheim, Germany), as recently described in detail in Holtmann et al., Eur. J. Immunol. 32:3142-3151 (2002). […]
For FACS analysis, apoptotic cells were detected by staining with annexin V and propidium iodide using the Annexin V FITC Apoptosis Detection Kit I (PharMingen) (Atreya et al., Nat. Med. 6:583-588 (2000)). […]

CD45RA T cells = assay: Annexin V/propidium iodide FACS apoptosis of stimulated CD45RA T cells; assay type: cell-based, human; conditions: rIL-2, anti-CD3 plus anti-CD28; after 5 days
Excerpt: as §1, §2

Row | SMILES | number of apoptotic CD4+ T cells (CD4+ T cells) | ΔΨm in primary T cells [1] | apoptosis of CD45RO memory T cells (CD45RO memory T cells) | further increase in percentage of apoptotic cells on additional 6-MP in vitro ([2]; T cells from 6-MP-treated patients) | number of apoptotic blood T cells [2] | induction of annexin V-positive, propidium iodide-negative naive CD45RA T cells (CD45RA T cells)
1 | Sc1ncnc2nc[nH]c12 [6-MP, 6-mercaptopurine] | marked increase | loss of ΔΨm | induced apoptosis | did not cause a further significant increase | significant increase | significant induction
2 | Cn1cnc([N+](=O)[O-])c1Sc1ncnc2nc[nH]c12 [azathioprine, Azathioprine] | marked increase | loss of ΔΨm | induced apoptosis |  | significant increase | significant induction
